{"source": "patent US12629363B2", "about": "“Prophylaxis and treatment of angioedema” (PHARVARIS GMBH, priority 2020, dated 2026)", "key": {"[1]": {"test": "Population 2-compartment PK model with oral absorption (BK challenge study)", "assay_type": "in vivo, human", "conditions": "population PK model parameter estimate (CV %)", "experimental": "A PK/PD analysis using the same approach as in the icatibant evaluation was conducted. […] PK was analyzed using a two-compartment body model with first-order oral absorption and a lag time; results are shown in Table 4. For the PK/PD model a simple Emax-model with a direct link was utilized. The PK/PD model was used to simulate PK profiles (N=1000) and calculate probability of durations of effect as well as to visualize effect-time profiles; see FIGS. 4 and 5."}, "[2]": {"test": "Ascending dose study 22-50 mg in healthy volunteers, PK (Example 4)", "assay_type": "in vivo, human"}, "BK B2 receptor": {"target": "T1, BK B2 receptor (Homo sapiens, UniProt P30411)", "T1 sequence (P30411 1-391)": "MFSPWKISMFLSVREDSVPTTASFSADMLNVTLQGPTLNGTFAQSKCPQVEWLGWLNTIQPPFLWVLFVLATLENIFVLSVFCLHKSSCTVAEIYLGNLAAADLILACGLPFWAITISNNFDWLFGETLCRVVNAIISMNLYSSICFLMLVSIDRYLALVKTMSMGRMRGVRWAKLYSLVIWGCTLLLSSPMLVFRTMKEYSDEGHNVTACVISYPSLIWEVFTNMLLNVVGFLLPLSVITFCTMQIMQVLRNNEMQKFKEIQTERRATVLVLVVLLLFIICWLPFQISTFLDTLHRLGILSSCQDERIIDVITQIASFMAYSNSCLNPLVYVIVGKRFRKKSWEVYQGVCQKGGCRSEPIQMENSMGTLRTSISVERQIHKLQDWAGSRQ", "test": "Bradykinin challenge study, PK/PD (Example 3)", "assay_type": "in vivo", "conditions": "for Time plasma level above EC85 at a 75% confidence level / Time plasma level above EC85 at a 75% confidence level, DBP / Time plasma level above EC85 at a 75% confidence level, MAP: modeling and simulation", "experimental": "The compound (12 and 22 mg) was administered orally (p.o.) to 16 healthy volunteers. BK was injected intravenously prior to oral administration of the compound, i.e. BK predosing challenge, and at 1, 4, 8, 12 and 24 hours after oral administration (dosing) of the 12 and 22 mg single dose, respectively. BK injections were administered to induce cardiovascular responses in the volunteers. The cardiovascular responses were monitored, and blood samples were drawn over 24 hours for PK assessment. The PD outcome variables were measured from 5 min before until 5 min after each BK bolus. A % inhibition-of-the-baseline average-to-peak effect was calculated and used as the PD outcome.\nImmediately after BK injection a short-lived change in blood pressure, heart rate and cardiac output can be recorded.\nPK was analyzed using a two-compartment body model with first-order oral absorption and a lag time; results are shown in Table 4. For the PK/PD model a simple Emax-model with a direct link was utilized. The PK/PD model was used to simulate PK profiles (N=1000) and calculate probability of durations of effect as well as to visualize effect-time profiles; see FIGS. 4 and 5."}, "dog B2 receptor": {"tested_on": "dog B2 receptor", "test": "Antagonist potency in cells expressing dog B2 receptor", "assay_type": "cell-based", "conditions": "compared with human B2 receptor", "from_the_text": "(§1) The bradykinin B2 receptor is well known for its species selective pharmacology (Paquet et al., Br. J. Pharmacol. (126), 1083-1090, 1999 (DOI: 10.1038/sj.bjp.0702403); Burgess et al., Br. J. Pharmacol. (129), 77-86, 2000 (DOI: 10.1038/sj.bjp.0703012)). […] Pharmacol. 11:916; DOI: 10.3389/fphar.2020.00916."}, "[3]": {"target": "T2, endogenous human B2 receptors (Homo sapiens, UniProt P30411)", "T2 sequence (P30411 1-391)": "T1 sequence (P30411 1-391)", "test": "Antagonist potency at endogenous human B2 receptors"}, "CYP3A4": {"target": "CYP3A4 (Homo sapiens, UniProt P08684)", "sequence (P08684 whole entry)": "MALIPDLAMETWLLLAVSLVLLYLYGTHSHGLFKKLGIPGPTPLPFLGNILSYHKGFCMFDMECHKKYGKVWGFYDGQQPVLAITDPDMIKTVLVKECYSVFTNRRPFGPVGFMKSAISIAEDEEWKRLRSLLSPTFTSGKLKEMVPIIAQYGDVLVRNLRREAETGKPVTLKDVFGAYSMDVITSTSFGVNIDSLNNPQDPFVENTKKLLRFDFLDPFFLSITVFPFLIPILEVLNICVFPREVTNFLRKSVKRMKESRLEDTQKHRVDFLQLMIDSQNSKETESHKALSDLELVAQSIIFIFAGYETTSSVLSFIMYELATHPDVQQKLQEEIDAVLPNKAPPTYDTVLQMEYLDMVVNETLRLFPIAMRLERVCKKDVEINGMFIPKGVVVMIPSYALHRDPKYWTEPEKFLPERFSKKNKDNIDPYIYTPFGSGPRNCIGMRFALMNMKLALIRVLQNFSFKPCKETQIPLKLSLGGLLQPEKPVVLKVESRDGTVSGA", "test": "In vitro CYP3A4 substrate data", "assay_type": "in vitro ADME"}, "clinical": {"test": "clinical", "conditions": "human, in vivo, po, 12 mg", "description": "Thirteen healthy subjects were enrolled and completed the study.\nOn Days 4 to 8, subjects received once daily oral doses of 200 mg itraconazole one hour before start of a standard meal.\nTrough plasma concentrations of itraconazole were determined by taking predose plasma samples on Days 4-7, to document exposure to itraconazole."}, "[4]": {"test": "Ascending dose study 22-50 mg in healthy volunteers, safety and tolerability (Example 4)", "assay_type": "in vivo, human"}, "rat B2 receptor": {"target": "T3, rat B2 receptor (Rattus norvegicus, UniProt P25023)", "T3 construct": "expressed in transfected cells", "T3 sequence (P25023 1-396)": "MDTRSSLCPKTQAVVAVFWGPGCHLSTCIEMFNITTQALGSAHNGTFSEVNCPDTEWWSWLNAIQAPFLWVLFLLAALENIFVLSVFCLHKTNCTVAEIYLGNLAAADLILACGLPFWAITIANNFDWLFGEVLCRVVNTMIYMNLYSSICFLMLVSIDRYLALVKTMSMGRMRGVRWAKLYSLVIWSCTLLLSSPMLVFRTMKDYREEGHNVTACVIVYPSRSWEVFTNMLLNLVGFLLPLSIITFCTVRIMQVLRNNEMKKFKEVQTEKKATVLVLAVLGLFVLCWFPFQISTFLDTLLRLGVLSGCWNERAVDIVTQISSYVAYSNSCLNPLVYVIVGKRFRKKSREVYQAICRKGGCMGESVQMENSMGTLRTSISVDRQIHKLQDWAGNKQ", "test": "Antagonist potency in cells expressing rat B2 receptor", "assay_type": "cell-based", "conditions": "compared with human B2 receptor", "from_the_text": "as §1"}, "[5]": {"conditions": "22 to 50 mg (factor 2.27 increase), after a standardized breakfast"}, "[6]": {"conditions": "plasma concentration, PD in BK challenge"}}, "note": "pEC50: −log10 of the molar value. Read-outs that look alike come from different tables or passages of the source."}
{"smiles": "[2H][C@@](C)(NC(=O)COC(F)F)c1cc(F)cc(Cl)c1COc1cccc2c(-c3ncnn3C)cc(C)nc12", "note": "[compound of formula (I)]", "values": [{"measurement": "CL/F apparent clearance", "setting": "[1]", "result": "34.5 (5.9%) L/h"}, {"measurement": "Ka first order absorption rate constant", "setting": "[1]", "result": "7.97 (25.1%) 1/h"}, {"measurement": "Q/F apparent inter-compartmental clearance", "setting": "[1]", "result": "10.7 (15.8%) L/h"}, {"measurement": "Tlag lag time", "setting": "[1]", "result": "0.181 (9.9%) h"}, {"measurement": "V2/F apparent volume for the central compartment", "setting": "[1]", "result": "101 (4.5%) L"}, {"measurement": "V3/F apparent volume for the peripheral compartment", "setting": "[1]", "result": "35.9 (10.7%) L"}, {"measurement": "fold increase for mean AUC0-24h", "setting": "[2]; [5]", "result": 2.39, "unit": "fold"}, {"measurement": "fold increase for mean Cmax", "setting": "[2]; [5]", "result": 2.37, "unit": "fold"}, {"measurement": "dose proportionality of PK", "setting": "[2]; 22 to 50 mg after a standardized breakfast", "result": "dose-proportional PK"}, {"measurement": "change in AUCinf after a standardized breakfast", "setting": "[2]; compared to fasting conditions", "result": "did not show a significant change"}, {"measurement": "decrease in Cmax after a standardized breakfast", "setting": "[2]; compared to fasting conditions", "result": "40-50%"}, {"measurement": "C12h and C24h plasma concentration, fed vs fasting", "setting": "[2]; human, in vivo", "result": "higher under fed conditions"}, {"measurement": "time stayed above EC85", "setting": "BK B2 receptor; 12 mg oral dose", "result": 7, "unit": "h"}, {"measurement": "Time plasma level above EC85 at a 75% confidence level", "setting": "BK B2 receptor; 12 mg p.o.", "result": 6.5, "unit": "h"}, {"measurement": "Time plasma level above EC85 at a 75% confidence level, DBP", "setting": "BK B2 receptor; 12 mg p.o.", "result": 7.5, "unit": "h"}, {"measurement": "Time plasma level above EC85 at a 75% confidence level, MAP", "setting": "BK B2 receptor; 12 mg p.o.", "result": 7, "unit": "h"}, {"measurement": "duration of effect relative to the 12 mg dose", "setting": "BK B2 receptor; 22 mg oral dose", "result": "approximately twice as long"}, {"measurement": "Time plasma level above EC85 at a 75% confidence level", "setting": "BK B2 receptor; 22 mg p.o.", "result": 9.5, "unit": "h"}, {"measurement": "Time plasma level above EC85 at a 75% confidence level, DBP", "setting": "BK B2 receptor; 22 mg p.o.", "result": 10, "unit": "h"}, {"measurement": "Time plasma level above EC85 at a 75% confidence level, MAP", "setting": "BK B2 receptor; 22 mg p.o.", "result": 10, "unit": "h"}, {"measurement": "potency relative to icatibant based on plasma concentrations", "setting": "BK B2 receptor; BK challenge EC50/EC85", "result": "approximately four-fold more potent than icatibant"}, {"measurement": "pEC50", "setting": "BK B2 receptor; corrected for plasma protein binding 96.2%, read-out: free plasma concentration associated with EC50 of 2.4 ng/ml", "result": 9.77}, {"measurement": "intrinsic PD potency at the K B2 receptor, fold higher than icatibant", "setting": "BK B2 receptor; in vivo", "result": "about 25 fold"}, {"measurement": "Estimated EC85, Cardiac output", "setting": "BK B2 receptor; [6]", "result": 9.52, "unit": "ng/mL"}, {"measurement": "Estimated EC85, Composite average", "setting": "BK B2 receptor; [6]", "result": 13.8, "unit": "ng/mL"}, {"measurement": "Estimated EC85, Diastolic blood pressure", "setting": "BK B2 receptor; [6]", "result": 13.26, "unit": "ng/mL"}, {"measurement": "Estimated EC85, Heart rate", "setting": "BK B2 receptor; [6]", "result": 18.7, "unit": "ng/mL"}, {"measurement": "EC50", "setting": "BK B2 receptor; plasma concentration, PD in BK challenge, read-out: Estimated EC50, Cardiac output (converted)", "result": 3.14, "unit": "nM"}, {"measurement": "EC50", "setting": "BK B2 receptor; plasma concentration, PD in BK challenge, read-out: Estimated EC50, Composite average (converted)", "result": 4.49, "unit": "nM"}, {"measurement": "EC50", "setting": "BK B2 receptor; plasma concentration, PD in BK challenge, read-out: Estimated EC50, Diastolic blood pressure (converted)", "result": 4.37, "unit": "nM"}, {"measurement": "EC50", "setting": "BK B2 receptor; plasma concentration, PD in BK challenge, read-out: Estimated EC50, Heart rate (converted)", "result": 6.17, "unit": "nM"}, {"measurement": "fold less potent towards the dog B2 receptor", "setting": "dog B2 receptor", "result": "18,000 fold"}, {"measurement": "antagonist potency at endogenous human B2 receptors", "setting": "[3]", "result": 350, "unit": "pM"}, {"measurement": "CYP3A4 substrate", "setting": "CYP3A4", "result": "substrate of CYP3A4"}, {"measurement": "Tmax", "setting": "clinical", "result": "30 to 60", "unit": "min"}, {"measurement": "half-life", "setting": "clinical", "result": 259, "unit": "min"}, {"measurement": "changes in vital signs, laboratory, or ECG parameters vs placebo", "setting": "[4]; 22-50 mg single oral doses", "result": "no clinically significant changes"}, {"measurement": "serious adverse effects", "setting": "[4]; 22-50 mg single oral doses", "result": "no serious adverse effects reported"}, {"measurement": "safety and tolerability", "setting": "[4]; doses up to 40 mg under fasting and 50 mg under fed conditions", "result": "safe and well tolerated"}, {"measurement": "fold less potent in antagonizing the rat B2 receptor", "setting": "rat B2 receptor", "result": "more than 1000 fold"}]}
